For this test, the target named is T1, ACC1 (Homo sapiens, UniProt Q13085).
T1 construct: purchased BPS bioscience
Description: In vitro inhibition of ACC1 activity, ADP-Glo Kinase Analysis. It counts as biochemical. As to conditions: 1 nM ACC1, 10 μM acetyl-CoA, 20 μM ATP. The source says:
ADP-Glo™ Kinase Analysis Kit (Promega) is used for the in vitro analysis of the inhibitory effect of the present compound on ACC1 or ACC2. ADP-Glo™ Kinase Analysis is a kinase detection analysis of luminescence method. ADP is produced in the process of catalyzing the substrate by ACC. ADP is converted into ATP which is then converted into light by Ultra-Glo™ luciferase. ADP is quantified by detecting the light signal, thus the enzyme activity can be measured by quantification of the ADP amount produced during the enzyme reaction. The analysis is carried out in two steps: in the first step, after the kinase reaction, a portion of ADP-Glo™ reagent equal in volume to the kinase reaction system is added to terminate the reaction and consume the remaining ATP; in the second step, a kinase detection reagent is added, which not only converts ADP into ATP, but also uses a coupled luciferase/luciferin reaction to detect newly synthesized ATP.
a. 10 mM compound stock solution (the present compound was dissolved in 100% DMSO to prepare the 10 mM stock solution) was diluted 50-fold to 200 μM with 100% DMSO, and then diluted in equal proportions (1:3) in a 96-well dilution plate (249944, Nunc). The gradient concentrations of the compound were 200 μM, 66.67 μM, 22.22 μM, 7.41 μM, 2.47 μM, 0.823 μM, 0.274 μM, 0.0914 μM, 0.0305 μM, 0.0102 μM, 0.00339 μM and 0.00113 μM.
b. 4.5 μL ACC1 working solution (BPS bioscience) (2.22 nM) was added to each well of a 384-well test plate (6007290, Perkin Elmer).
c. 0.5 μL of the serially diluted compound (prepared in step a) was added to each well of the 384-well test plate, which was centrifuged at 1000 rpm for 1 min and then incubated at room temperature for 15 min. The reaction system with compound GS-0976 at a final concentration of 0.1 μM was used as positive control; the reaction system with no compound but DMSO at a final concentration of 5% was used as negative control.
d. In the 384-well test plate (prepared in step c), 5 μL of the substrate working solution was added to each well to start the enzymatic reaction. The plate was centrifuged at 1000 rpm for 1 min and then incubated at room temperature for 30 min. The final concentration of each component in the ACC1 reaction system: 1 nM ACC1, 10 μM acetyl-CoA, 30 mM NaHCO3, and 20 μM ATP. The final concentration of each component in the ACC2 reaction system: 1.1 nM ACC2, 20 μM acetyl-CoA, 20 mM NaHCO3, and 15 μM ATP. Final concentrations of test compounds: 10 μM, 3.33 μM, 1.11 μM, 0.37 μM, 0.123 μM, 0.0411 μM, 0.0137 μM, 0.00457 μM, 0.00152 μM, 0.00051 μM, 0.00017 μM and 0.000056 μM. The final concentration of DMSO was 5% (v/v).
e. 10 μL of ADP-Glo reagent was added to each well of the 384-well test plate (prepared in step d), which was centrifuged at 1000 rpm for 1 min and then incubated at room temperature for 40 min.
f. 20 μL of kinase detection reagent was added to each well of the 384-well test plate (prepared in step e), which was centrifuged at 1000 rpm for 1 min and then incubated at room temperature for 40 min.
g. The chemiluminescence signal was detected with Perkin Elmer EnVision 2104.
ACC1 working solution and substrate working solution were both prepared with 1× kinase reaction buffer. The buffer was consisting of 50 mM HEPES buffer, 2 mM magnesium chloride, 0.01% BRIJ-35, 2 mM potassium citrate, 50 μg/mL BSA and 2 mM DTT.
The average value of the positive and negative control well and the standard deviation were calculated. The inhibition percentage was calculated according to the following formula: 100×[1−(compound−average value of positive control)/(average value of negative control-average value of positive control)].
IC50 of the compound was obtained using GraphPad Prism 6 software according to the following nonlinear fitting formula:
Y=Bottom+(Top−Bottom)/(1+10^((Log IC50−X)×Hillslope)), […]
A general note: ADP-Glo turns the ADP formed in a reaction into a luminescent signal.
As a reminder, the IC50 is the concentration that inhibits the measured activity by half. A low value points to inhibition by little substance. “7′-(2-(2-methoxyphenyl)-2-((tetrahydro-2H-pyran-4-yl)oxy)ethyl)-3′-methyl-2′-(oxazol-2-yl)-4′,6′-dioxo-6′,7′-dihydro-4′H-spiro[cyclohexane-1,5′-thieno[2,3-b]pyridine]-3-carboxylic Acid [Compound 7a]” returned an IC50 of more than 500 nM.
As for “7′-(2-(2-methoxyphenyl)-2-((tetrahydro-2H-pyran-4-yl)oxy)ethyl)-3′-methyl-2′-(oxazol-2-yl)-4′,6′-dioxo-6′,7′-dihydro-4′H-spiro[cyclohexane-1,5′-thieno[2,3-b]pyridine]-3-carboxylic Acid [Compound 7b]”, the figure is 100 to 500 nM.
With `Cc1c(-c2ncco2)sc2c1C(=O)C1(CCC(C(=O)O)C1)C(=O)N2CC(OC1CCOCC1)c1ccccc1` (mixture of isomers) [Compound 3, 3′-methyl-2′-(oxazol-2-yl)-4′,6′-dioxo-7′-(2-phenyl-2-((tetrahydro-2H-pyran-4-yl)oxy)ethyl)-6′,7′-dihydro-4′H-spiro[cyclopentane-1,5′-thieno[2,3-b]pyridine]-3-carboxylic Acid], the concentration for half-maximal inhibition (IC50) is 100 to 500 nM.
The molecule `Cc1c(-c2ncco2)sc2c1C(=O)C1(CCC(C)(C(=O)O)C1)C(=O)N2CC(OC1CCOCC1)c1ccccc1` (mixture of isomers) [Compound 4, 3,3′-dimethyl-2′-(oxazol-2-yl)-4′,6′-dioxo-7′-(2-phenyl-2-((tetrahydro-2H-pyran-4-yl)oxy)ethyl)-6′,7′-dihydro-4′H-spiro[cyclopentane-1,5′-thieno[2,3-b]pyridine]-3-carboxylic Acid] displayed an IC50 of 100 to 500 nM.
Turning to `COc1ccccc1C(CN1C(=O)C2(CCC(C(=O)O)C2)C(=O)c2c1sc(-c1ncco1)c2C)OC1CCOCC1` (mixture of isomers) [Compound 5, 7′-(2-(2-methoxyphenyl)-2-((tetrahydro-2H-pyran-4-yl)oxy)ethyl)-3′-methyl-2′-(oxazol-2-yl)-4′,6′-dioxo-6′,7′-dihydro-4′H-spiro[cyclopentane-1,5′-thieno[2,3-b]pyridine]-3-carboxylic Acid], the IC50 was less than 10 nM.
The figure for `COc1ccccc1C(CN1C(=O)C2(CCC(C(=O)O)C2)C(=O)c2c1sc(-c1ncco1)c2C)OC1CCOCC1` (mixture of isomers) [Compound 5e, 7′-(2-(2-methoxyphenyl)-2-((tetrahydro-2H-pyran-4-yl)oxy)ethyl)-3′-methyl-2′-(oxazol-2-yl)-4′,6′-dioxo-6′,7′-dihydro-4′H-spiro[cyclopentane-1,5′-thieno[2,3-b]pyridine]-3-carboxylic Acid] is 10 to 100 nM.
The figure for `Cc1c(-c2ncco2)sc2c1C(=O)C1(CCC(C(=O)O)CC1)C(=O)N2CC(OC1CCOCC1)c1ccccc1` (mixture of isomers) [Compound 6, 3′-methyl-2′-(oxazol-2-yl)-4′,6′-dioxo-7′-(2-phenyl-2-((tetrahydro-2H-pyran-4-yl)oxy)ethyl)-6′,7′-dihydro-4′H-spiro[cyclohexane-1,5′-thieno[2,3-b]pyridine]-4-carboxylic acid] is 100 to 500 nM.
The figure for `Cc1c(-c2ncco2)sc2c1C(=O)C1(CCC1)C(=O)N2CC(OC1CCOCC1)c1ccccc1` (racemic) [Compound 1, 3′-methyl-2′-(oxazol-2-yl)-7′-(2-phenyl-2-((tetrahydro-2H-pyran-4-yl)oxy)ethyl)-4′H-spiro[cyclobutane-1,5′-thieno[2,3-b]pyridine]-4′,6′(7′H)-dione] is more than 500 nM; for `COc1ccccc1C(CN1C(=O)C2(CCC(C(=O)O)C2)C(=O)c2c1sc(-c1ncco1)c2C)OC1CCOCC1` (single isomer, unassigned) [Compound 5a, 7′-(2-(2-methoxyphenyl)-2-((tetrahydro-2H-pyran-4-yl)oxy)ethyl)-3′-methyl-2′-(oxazol-2-yl)-4′,6′-dioxo-6′,7′-dihydro-4′H-spiro[cyclopentane-1,5′-thieno[2,3-b]pyridine]-3-carboxylic Acid] it is 10 to 100 nM; for `COc1ccccc1C(CN1C(=O)C2(CCC(C(=O)O)C2)C(=O)c2c1sc(-c1ncco1)c2C)OC1CCOCC1` (single isomer, unassigned) [Compound 5c, 7′-(2-(2-methoxyphenyl)-2-((tetrahydro-2H-pyran-4-yl)oxy)ethyl)-3′-methyl-2′-(oxazol-2-yl)-4′,6′-dioxo-6′,7′-dihydro-4′H-spiro[cyclopentane-1,5′-thieno[2,3-b]pyridine]-3-carboxylic Acid] it is less than 10 nM.
The molecule `COc1ccccc1C(CN1C(=O)C2(CCC(C(=O)O)C2)C(=O)c2c1sc(-c1ncco1)c2C)OC1CCOCC1` (single isomer, unassigned) [Compound 5d, 7′-(2-(2-methoxyphenyl)-2-((tetrahydro-2H-pyran-4-yl)oxy)ethyl)-3′-methyl-2′-(oxazol-2-yl)-4′,6′-dioxo-6′,7′-dihydro-4′H-spiro[cyclopentane-1,5′-thieno[2,3-b]pyridine]-3-carboxylic Acid] came in with a half-inhibitory concentration (IC50) of less than 10 nM.
The figure for `COc1ccccc1C(CN1C(=O)C2(CC(C(=O)O)C2)C(=O)c2c1sc(-c1ncco1)c2C)OC1CCOCC1` (single isomer, unassigned) [Compound 8a, 7′-(2-(2-methoxyphenyl)-2-((tetrahydro-2H-pyran-4-yl)oxy)ethyl)-3′-methyl-2′-(oxazol-2-yl)-4′,6′-dioxo-6′,7′-dihydro-4′H-spiro[cyclobutane-1,5′-thieno[2,3-b]pyridine]-3-carboxylic Acid] is 10 to 100 nM; for `COc1ccccc1C(CN1C(=O)C2(CC(C(=O)O)C2)C(=O)c2c1sc(-c1ncco1)c2C)OC1CCOCC1` (single isomer, unassigned) [Compound 8b, 7′-(2-(2-methoxyphenyl)-2-((tetrahydro-2H-pyran-4-yl)oxy)ethyl)-3′-methyl-2′-(oxazol-2-yl)-4′,6′-dioxo-6′,7′-dihydro-4′H-spiro[cyclobutane-1,5′-thieno[2,3-b]pyridine]-3-carboxylic Acid] it is 100 to 500 nM; for `Cc1c(-c2ncco2)sc2c1C(=O)C1(CCCC1)C(=O)N2CC(OC1CCOCC1)c1ccccc1` (centres unmarked) [Compound 2, 3′-methyl-2′-(oxazol-2-yl)-7′-(2-phenyl-2-((tetrahydro-2H-pyran-4-yl)oxy)ethyl)-4′H-spiro[cyclopentane-1,5′-thieno[2,3-b]pyridine]-4′,6′(7′H)-dione] it is more than 500 nM.
In the case of `CNC(=O)[C@H]1C[C@@]2(C1)C(=O)c1c(sc(-c3ncco3)c1C)N(C[C@H](OC1CCOCC1)c1ccccc1OC)C2=O` [Compound 9], the IC50 is less than 10 nM.
As for `COc1ccccc1[C@H](CN1c2sc(-c3ncco3)c(C)c2C(=O)[C@]2(C[C@H](C(=O)NCC(=O)O)C2)C1=O)OC1CCOCC1` [Compound 10, ((1s,3S)-7′-((R)-2-(2-methoxyphenyl)-2-((tetrahydro-2H-pyran-4-yl)oxy)ethyl)-3′-methyl-2′-(oxazol-2-yl)-4′,6′-dioxo-6′,7′-dihydro-4′H-spiro[cyclobutane-1,5′-thieno[2,3-b]pyridine]-3-carbonyl)glycine], the figure is less than 10 nM.
In turn, `COC(=O)CNC(=O)[C@H]1C[C@@]2(C1)C(=O)c1c(sc(-c3ncco3)c1C)N(C[C@H](OC1CCOCC1)c1ccccc1OC)C2=O` [Compound 10-1, methyl ((1s,3S)-7′-((R)-2-(2-methoxyphenyl)-2-((tetrahydro-2H-pyran-4-yl)oxy)ethyl)-3′-methyl-2′-(oxazol-2-yl)-4′,6′-dioxo-6′,7′-dihydro-4′H-spiro[cyclobutane-1,5′-thieno[2,3-b]pyridine]-3-carbonyl)glycinate] displayed an IC50 of less than 10 nM.

Values taken from patent publication US20220041616A1, “SPIRO COMPOUND AND MEDICAL USES THEREOF” (The National Institutes of Pharmaceutical R&D Co., Ltd., priority 2018, published 2022).
